Patent US20210008070A1, “TARGETING MINIMAL RESIDUAL DISEASE IN CANCER WITH CD36 ANTAGONISTS” (VIB VZW, priority 2018, published 2021)

Experiments:
[1] = tested on: RAR receptors; conditions: cited from earlier work
[2] = tested on: MM52 cells; assay: Colony assay / Cell Titer Glo in short-term melanoma culture MM52; format: cell-based, human
Procedure: D) Colony assay performed over 7 days.
E) and Cell Titer Glo assay performed after 6 days after incubation of the short culture melanoma line MM052 with MEK inhibitor trametinib (TRA; […]; 1 uM), FAK inhibitor PF-562271 (1 uM) and RXRG antagonist HX531 (2 uM)
Cells were grown to near confluency on 12well plates and treated with the indicated drug combinations for the indicated time period. Cells were washed once with PBS, stained with crystal violet (1% crystal violet w/v, 35% methanol v/v) for 15 min, washed with PBS and destained in tap water.
1.15. Cell Titer Glo 2500 cells were plated onto a 96 well plate and treated with the indicated drug combinations for the indicated time period. Cell Titer Glo assay was performed according to the manufacturer's instruction (Promega) and luminescence was measured on a VictorX3 (Perkin Elmer).

[3] = tested on: GFRA2-positive MEL006 cells; assay: FACS of GFRA2-positive cells in MEL006 cultures
Procedure: Cells were resuspended in FACS sorting buffer (culture medium supplied with 1% EDTA 100 mM).

CC1(C)CCC(C)(C)c2cc(C3(c4ccc(C(=O)O)cc4)OCCO3)ccc21 [SR 11237]
RAR activity [1]: devoid of any RAR activity

C=C(c1ccc(C(=O)O)cc1)c1cc2c(cc1C)C(C)(C)CCC2(C)C [bexarotene]
long-term growth inhibition ([2]; alone): did not induce measurable long-term growth inhibition | sensitivity to a combination of trametinib/FAK-inhibitors ([2]; bexarotene added): increased the sensitivity | sensitivity of MM52 cells to trametinib ([2]; bexarotene at concentrations as low as 10 nM): significantly decreased the sensitivity | cells with cell death ([2]; bexarotene with trametinib/FAK-inhibitors, after 3 days of treatment): ~100%

CN(c1ncccc1CNc1nc(Nc2ccc3c(c2)CC(=O)N3)ncc1C(F)(F)F)S(C)(=O)=O [PF-562271]
drug-dependent emergence of the GFRA2-high cell population ([3]; added to DT): diminished the drug-dependent emergence of the GFRA2-high cell population in a dose-dependent manner

CN1c2ccc([N+](=O)[O-])cc2N=C(c2ccc(C(=O)O)cc2)c2cc3c(cc21)C(C)(C)CCC3(C)C [HX531]
sensitivity of MM52 cells to trametinib ([2]; HX531 plus trametinib): sensitized these cells to trametinib | drug-dependent induction of GFRA2-positive cells ([3]; with IC50 concentrations of BRAF and MEK-inhibitors): completely inhibited emergence
